Results taken from patent US10004225B2, “Wearable insect repelling patch” (S. C. Johnson & Son, Inc., priority 2005, dated 2018).

Legend:
mosquitoes [1] = assay: Three-chamber test apparatus, mosquito personal area repellency of hung patches with human test subject as attractant; assay type: in vivo; details: Example 1, 2 patches 103 cm^2, 60 mg each; for % Repellency: no adhesive
Procedure: Various patch sizes and insect repellents were tested, initially using the test apparatus shown schematically generally at 20 in FIG. 3. The test apparatus 20 has a sample chamber 22, connected to a mosquito chamber 24, which is connected via an opening 34 to a remote chamber 26. Each chamber is generally cubical, with a volume of about 0.43 m^3.
The sample chamber 22 has an open end 28 on the side remote from the mosquito chamber 24. A screen 30 divides the sample chamber 22 from the mosquito chamber 24. The opening 34 between the mosquito chamber 24 and the remote chamber 26 is slightly constricted by side walls 32. However, the opening 34 is still sufficiently large that mosquitoes can freely move between the mosquito and remote chambers 24 and 26.
Four, screened, low-flow exhaust ports 36 are located in the side walls 32, the exhaust ports facing the open end 28. Air is drawn through the exhaust ports 36 and exhausted from the mosquito chamber 24 at a rate sufficient to draw air in through the open end 28 but insufficient to affect the flying of mosquitoes placed in the mosquito chamber 24 or to disturb the air in the remote chamber 26.
For each test, a human test subject 38 is placed at the open end 28 of the sample chamber 22, the test subject's breath providing the warmth, CO2, and moisture known to be human attractants for mosquitoes. The exhaust ports 36 pull air, along with those attractants, though the open end 28 and on through the sample chamber 22, the screen 30, and the mosquito chamber 24. The attractants thus leave the apparatus 20 without entering the remote chamber 26.
Mosquitoes are placed in the mosquito chamber 24 and are quickly attracted to the screen 30 by the human attractants. The open end 28 is large enough to expose primarily the upper torso and head of the test subject. Two patches 10 are hung one foot into the sample chamber 22 and approximately 20 cm down from the chamber's top (except as was done otherwise in particular experiments, as is noted, below).
Percent repellency was calculated as the percent of mosquitoes that had been initially introduced into the mosquito chamber 24 (most of which were attracted to the screen 30 before the patches 10 were put in place), that then were repelled from the screen when the patches were introduced. The “repellency” indicated in the table, below, for time zero reflects the mosquitoes that were not yet attracted to the screen 30 by the time the test patches 10 were introduced. […] The patches 10 used were 103 cm^2 in size, with no adhesive layer 18.
The patch material was a non-woven cloth material comprised of rayon, polyester, and polypropylene (as described in published U.S. Patent Application US20040082248), dosed with 60 mg of the active ingredient. The controls used no patches.
The same test apparatus 20 was used in the same way as described in Example 1, with the following changes. When a test included four patches 10, two were hung as in Example 1, and two were hung about 13 cm from the bottom of the chamber to simulate patches worn on the shoulders and at the waist of a user. In one test, as indicated in the table, below, the patches 10 were attached to the test subject's chest. Each individual patch was treated with the amount of insect repellent indicated. Time is shown in minutes.

mosquitoes [2] = assay: Field test in southern Florida, one-minute biting count on lower leg of human test subjects wearing patches; assay type: in vivo
Source text: We also conducted some field tests of the present invention in southern Florida using patches 10 dosed with metofluthrin. Human test subjects and designated untreated control entered the test site, each test subject being separated by a minimum of 25 meters (approx. 75 feet). Shortly after all test subjects and an untreated control were set up in the test site, a 15 second ‘nuisance’ pre-count was taken by counting or best estimating the number of mosquitoes landing or touching the visual areas on the test suit.
Directly after the ‘nuisance’ count, a one-minute biting pre-count of a lower leg was taken. The pre-count began by having each subject roll up one pant leg to the knee then count the number of mosquitoes landing or biting on the exposed skin over a one minute period. Once a mosquito landed, the insect was pushed away (flicked, swatted or other) from the leg.
After the precounts were made, each test subject attached insect repellent patches 10 to predetermined areas on the test suit. The location of the patches is described below.
Mosquito land or bite counts were then made as described above for the pre-counts, with counts taken every 5 minutes for the first 20 minutes. After the 20 minute count, the test subjects and controls moved locations, walking approximately 15 meters. This was followed by their immediately taking a 15-second nuisance and one-minute biting count. Additional counts were then made at 25 and 30 minutes at that new location. After the 30 minute counts, the test subjects and controls moved location again, walking approximately 15 meters. This is followed by their immediately taking a 15-second nuisance and the one-minute biting count. An additional count was then made again at 35 minutes. The test was concluded after the 35 minute count.
The patches 10 used in the test were treated with metofluthrin, the 103 cm^2 patches bearing 60 mg and the 51.6 cm^2 patches bearing about 30 mg of metofluthrin. The patch material was selected either from a substrate made of a nylon-type material or from a non-woven cloth made of rayon, polyester, polypropylene, and polyethylene fibers. No difference in performance between the two materials was detected.
When four, 103 cm^2 patch samples were used, the patches were placed on the side of each shoulder and on the outwardly facing side of each knee. For the four, 51.6 cm^2 patch samples, the patches were placed on the side of each shoulder and on the top of the shoe. The 103 cm^2 patches were too big to place on the shoe, and therefore only the 51.6 cm^2 patches were placed there. For the two, 51.6 cm^2 patch testing, one patch was placed on one shoulder and another was placed on the outwardly facing side of the opposing knee.
The Average Percent Biting Repellency was calculated using the following formula:
C2=control count at time corresponding with treatment count
T1=precount for test area
T2=test area count at designated time
The percent repellency was calculated by the following formula: […]

SMILES: CC=C[C@@H]1[C@@H](C(=O)OCc2c(F)c(F)c(COC)c(F)c2F)C1(C)C (racemic) [metofluthrin, 2,3,5,6-tetrafluoro-4-methoxymethylbenzyl (EZ)-(1RS,3RS)-2,2-dimethyl-3-(prop-1-enyl)-cyclopropanecarboxylate]
- personal area repellency (result in words) (mosquitoes [1]): successful personal area repellency
- % Repellency (mosquitoes [1]; 5 min): 72%
- % Repellency (mosquitoes [1]; 10 min): 92%
- % Repellency (mosquitoes [1]; 15 min): 96%
- % Repellency (mosquitoes [1]; 20 min): 98%
- % Repellency (mosquitoes [1]; time 0 min (mosquitoes not yet attracted to screen)): 10%
- Percent Biting Repellency (mosquitoes [2]; 2 patches (51.6 cm^2, about 30 mg each), 3 reps, 0 min): 0%
- Percent Biting Repellency (mosquitoes [2]; 2 patches (51.6 cm^2, about 30 mg each), 3 reps, 5 min): 42%
- Percent Biting Repellency (mosquitoes [2]; 2 patches (51.6 cm^2, about 30 mg each), 3 reps, 10 min): 60%
- Percent Biting Repellency (mosquitoes [2]; 2 patches (51.6 cm^2, about 30 mg each), 3 reps, 15 min): 90%
- Percent Biting Repellency (mosquitoes [2]; 2 patches (51.6 cm^2, about 30 mg each), 3 reps, 20 min): 81%
- Percent Biting Repellency (mosquitoes [2]; 2 patches (51.6 cm^2, about 30 mg each), 3 reps, 21 min, immediately after moving approx. 15 meters): 13%
- Percent Biting Repellency (mosquitoes [2]; 2 patches (51.6 cm^2, about 30 mg each), 3 reps, 25 min): 82%
- Percent Biting Repellency (mosquitoes [2]; 2 patches (51.6 cm^2, about 30 mg each), 3 reps, 30 min): 81%
- Percent Biting Repellency (mosquitoes [2]; 2 patches (51.6 cm^2, about 30 mg each), 3 reps, 31 min, immediately after moving approx. 15 meters): 44%
- Percent Biting Repellency (mosquitoes [2]; 2 patches (51.6 cm^2, about 30 mg each), 3 reps, 35 min): 73%
- Percent Biting Repellency (mosquitoes [2]; 3 patches (103 cm^2, 60 mg each), 2 reps, 0 min): 0%
- Percent Biting Repellency (mosquitoes [2]; 3 patches (103 cm^2, 60 mg each), 2 reps, 5 min): 75%
- Percent Biting Repellency (mosquitoes [2]; 3 patches (103 cm^2, 60 mg each), 2 reps, 10 min): 100%
- Percent Biting Repellency (mosquitoes [2]; 3 patches (103 cm^2, 60 mg each), 2 reps, 15 min): 100%
- Percent Biting Repellency (mosquitoes [2]; 3 patches (103 cm^2, 60 mg each), 2 reps, 20 min): 100%
- Percent Biting Repellency (mosquitoes [2]; 3 patches (103 cm^2, 60 mg each), 2 reps, 21 min, immediately after moving approx. 15 meters): 16%
- Percent Biting Repellency (mosquitoes [2]; 3 patches (103 cm^2, 60 mg each), 2 reps, 25 min): 84%
- Percent Biting Repellency (mosquitoes [2]; 3 patches (103 cm^2, 60 mg each), 2 reps, 30 min): 84%
- Percent Biting Repellency (mosquitoes [2]; 3 patches (103 cm^2, 60 mg each), 2 reps, 31 min, immediately after moving approx. 15 meters): 64%
- Percent Biting Repellency (mosquitoes [2]; 3 patches (103 cm^2, 60 mg each), 2 reps, 35 min): 100%
- Percent Biting Repellency (mosquitoes [2]; 4 patches (103 cm^2), 2 reps, 0 min): 0%
- Percent Biting Repellency (mosquitoes [2]; 4 patches (103 cm^2), 2 reps, 5 min): 96%
- Percent Biting Repellency (mosquitoes [2]; 4 patches (103 cm^2), 2 reps, 10 min): 100%
- Percent Biting Repellency (mosquitoes [2]; 4 patches (103 cm^2), 2 reps, 15 min): 100%
- Percent Biting Repellency (mosquitoes [2]; 4 patches (103 cm^2), 2 reps, 20 min): 88%
- Percent Biting Repellency (mosquitoes [2]; 4 patches (103 cm^2), 2 reps, 21 min, immediately after moving approx. 15 meters): 33%
- Percent Biting Repellency (mosquitoes [2]; 4 patches (103 cm^2), 2 reps, 25 min): 50%
- Percent Biting Repellency (mosquitoes [2]; 4 patches (103 cm^2), 2 reps, 30 min): 73%
- Percent Biting Repellency (mosquitoes [2]; 4 patches (103 cm^2), 2 reps, 31 min, immediately after moving approx. 15 meters): 22%
- Percent Biting Repellency (mosquitoes [2]; 4 patches (103 cm^2), 2 reps, 35 min): 96%
- Percent Biting Repellency (mosquitoes [2]; 4 patches (103 cm^2, 60 mg each), 1 rep, 0 min): 0%
- Percent Biting Repellency (mosquitoes [2]; 4 patches (103 cm^2, 60 mg each), 1 rep, 5 min): 85%
- Percent Biting Repellency (mosquitoes [2]; 4 patches (103 cm^2, 60 mg each), 1 rep, 10 min): 94%
- Percent Biting Repellency (mosquitoes [2]; 4 patches (103 cm^2, 60 mg each), 1 rep, 15 min): 100%
- Percent Biting Repellency (mosquitoes [2]; 4 patches (103 cm^2, 60 mg each), 1 rep, 20 min): 92%
- Percent Biting Repellency (mosquitoes [2]; 4 patches (103 cm^2, 60 mg each), 1 rep, 21 min, immediately after moving approx. 15 meters): 85%
- Percent Biting Repellency (mosquitoes [2]; 4 patches (103 cm^2, 60 mg each), 1 rep, 25 min): 81%
- Percent Biting Repellency (mosquitoes [2]; 4 patches (103 cm^2, 60 mg each), 1 rep, 30 min): 100%
- Percent Biting Repellency (mosquitoes [2]; 4 patches (103 cm^2, 60 mg each), 1 rep, 31 min, immediately after moving approx. 15 meters): 61%
- Percent Biting Repellency (mosquitoes [2]; 4 patches (103 cm^2, 60 mg each), 1 rep, 35 min): 94%
- personal area repellency in field test (result in words) (mosquitoes [2]; patch sizes, dosages and locations of Example 3, even after user moved to a new location): can successfully provide personal area repellency within a very brief time
